# Like-named read-outs stand apart in the source and are kept apart here.
# What was measured:
# [1] = tolerability / maximum tolerated dose after intrathecal dosing
# Procedure: To investigate toxicity, healthy female nude mice were first administered a specific dose of either free BMN-673 or BMN-NPs ranging from 0.03 mg/kg to 1.25 mg/kg. The mice were monitored for weight-loss or other signs of distress, and if the dose was well tolerated, 4 additional mice were dosed and monitored (n=5).
# Toxicology studies were conducted in healthy female nude mice to characterize the safety of BMN-NPs in vivo. […] Increasing doses of either BMN-NP or free BMN-673 were administered to animals. Body weight loss and overall animal health were closely monitored.
# [2] = hematological toxicity after intrathecal dosing; conditions: for blood cell counts: at MTD
# Procedure: For hematological analysis, healthy nude mice (n=5 per time point) were administered either free BMN-673 (0.05 mg/kg) or BMN-NPs (0.5 mg/kg). At 3 days and 7 days post administration, 100 μL of blood was drawn via cardiac puncture using 15 μL EDTA-coated tubes. Levels of blood cell counts were measured using HEMA VET® HV950 multispecies hematologic analyzer (Drew Scientific, Oxford, CT, USA). Spleens and livers were harvested, fixed in formalin overnight, and H&E stained for histopathological evaluation.
# To further test systemic toxicity differences between BMN-NPs and free BMN, red blood cells, white blood cells, and platelet levels were monitored in mice at day 3 and day 7 following two bi-weekly administrations at MTD (FIG. 5C).
# [3] = tested on: DAOY cells; test: DAOY intracisternal xenograft, single-dose treatment; format: in vivo, J:Nu mice; conditions: single dose 0.1 mg/kg
# Procedure: Intra-cisternal transplantation of DAOY cells stably expressing luciferase was used for in vivo studies. A surgical catheter was implanted into their cisterna magna, and used for both cellular implantation and IT dosage during treatment. Mice were treated when their tumoral luminescence burden was detectable at […] BLI (unit), 7 days post-implantation. Mice were treated once, at the same dose level of 0.1 mg/kg with either BMN NPs or free BMN-673 (FIG. 7A).
# [4] = tested on: DAOY cells; test: DAOY intracisternal xenograft, twice-weekly treatment; conditions: 0.25 mg/kg BMN-NPs or 0.03 mg/kg free BMN-673
# Procedure: DAOY cells (ATCC) were inoculated in 8 week J:Nu female mice at 10^5 cells suspended in 6 μL of DPBS. Tumor growth was followed by luminescence imaging twice a week, implantation. For luminescence imaging, mice were injected with 200 μL of a solution of D-Luciferin (15 mg/ml, Caliper Life Science) and imaged 5 minutes after injection using an IVIS200 in vivo imaging system (Xenogen, Caliper Life Science). An image showing light intensity (photons/second) was generated and the signal in each mouse was quantified using Living Image 4.0 software (Xenogen). On day 7 after tumor injection, all mice were randomized and treated with BMN-673 loaded NPs or free BMN-673 drug either once a week or bi-weekly for two weeks. Tumors were monitored for regression or progression with BLI, and left until neurological symptoms appeared or humane endpoint was reached (slow motion, >20% weight lose).
# This study was repeated using twice-weekly dosing of 0.25 mg/kg of BMN-NPs or 0.03 mg/kg for free BMN-673 (FIGS. 7D-7F).
# [5] = tested on: DAOY, D341, and D283 cells; test: drug combination synergy (Loewe model, CellTiter-Glo viability); format: cell-based
# [6] = tested on: D341 cells; test: D341 xenograft with existing spinal metastasis; format: in vivo, mice
# Procedure: In the D341 model, most mice develop spinal metastasis that is detectable by IVIS imaging within 7 days of inoculation, so it was tested whether BMN-NPs and free BMN were efficacious against existing spinal metastasis by starting treatment at day 7 in the presence of leptomeningeal metastasis. […] This therapy was improved with a temozolomide (TMZ) combination approach. The synergy between TMZ and PARPi is well documented in vitro, as PARP1 trapping sensitizes cells to the DNA methylation mechanism of TMZ, but in vivo, a reduction in the PARPi dose is necessary to prevent acute toxicity.
# [7] = tested on: PARP1; conditions: cited from earlier work
# [8] = format: in vivo; conditions: i.v., after 20 minutes, tumor-bearing mice
# Procedure: CNS retention of ^89Zr-DFO-NPs was assessed in tumor-bearing mice. A leptomeningeal metastatic medulloblastoma model was administered DAOY cells stably expressing luciferase by IT injection into the CM. […] Two mice were injected intravenously with Gd-DTPA, and imaged via MRI after 20 minutes.
# [9] = tested on: medulloblastoma cell line D283; conditions: 1 micromolar Olaparib with radiation; cited from earlier work
# [10] = tested on: breast, prostate and ovarian cancer; conditions: clinical trials; cited from earlier work
# [11] = combined with BMN-673, across all cell lines
smiles,measurement,setting,value
"Cn1ncnc1[C@H]1c2n[nH]c(=O)c3cc(F)cc(c23)N[C@@H]1c1ccc(F)cc1 [BMN-673, talazoparib]",body weight loss,"[1]; 0.03 mg/kg twice a week, IT",less than 10%
same,body weight loss,"[1]; 0.05 mg/kg, single IT dose",less than 15%
same,"dose above which toxicity-related symptoms developed (lethargy, labored breathing, death)",[1]; IT,greater than 0.06 mg/kg
same,LD50,"[1]; mouse, in vivo",0.125 mg/kg
same,MTD,"[1]; mouse, in vivo",0.05 mg/kg
same,lethal dose (lethal at any dose at or higher than),"[1]; single IT dose, J:Nu mice",≥ 0.06 mg/kg
same,blood cell counts,[2]; 3 days post-treatment,"a decrease in all leukocytes except for monocytes, and also showed a reduction in platelet count"
same,blood cell counts,[2]; by 7 days,did not show an improvement outside of basophil count
same,blood cell levels,"[2]; two bi-weekly administrations, 0.05 mg/kg/week free BMN, day 3 to day 7",progressive leukopenia and thrombocytopenia at day 3 which did not improve appreciably at day 7
same,body weight loss versus BMN-NP group,[3],lost significantly more weight than the BMN-NP group
same,mice with tumor reduction benefit,[3],one out five
same,tumor response,[4],tumors continued to progress with treatment of free drug
same,synergy with TMZ (combinatorial index),"[5]; Loewe synergy model, with temozolomide",high levels of synergy
same,cell viability compared to BMN-673 alone,[5]; incremental log-fold increases in BMN-673 in presence of TMZ,decreased viability
same,effect on cerebral and spinal tumor burden,"[6]; four repeat doses, free BMN-673 at equitoxic dose, start day 7",no effect
same,tolerability,[6]; in combination with temozolomide,not tolerated at even the lowest doses of BMN-673
same,PARP1 trapping,[7],potent PARP1 trap
O=P1(N(CCCl)CCCl)NCCCO1 (stereo not shown) [Cyclophosphamide],synergy with BMN-673,[5],did not show consistent synergist action
O=C(O)CN(CCN(CC(=O)O)CC(=O)O)CCN(CC(=O)O)CC(=O)O.[Gd+3] [Gd-DTPA],signal in the brain by MRI,[8],no detectable Gd-DTPA signal in the brain
CCc1c2c(nc3ccc(OC(=O)N4CCC(N5CCCCC5)CC4)cc13)-c1cc3c(c(=O)n1C2)COC(=O)[C@]3(O)CC [Irinotecan],synergy with BMN-673,[5]; [11],did not show consistent synergist action
O=NN(CCCl)C(=O)NC1CCCCC1 [Lomustine],synergy with BMN-673,[5]; [11],did not show consistent synergist action
"O=C(c1cc(Cc2n[nH]c(=O)c3ccccc23)ccc1F)N1CCN(C(=O)C2CC2)CC1 [Olaparib, olaparib]",DNA double stranded breaks,[9],high levels of DSB
same,anti-tumour effect and side effects,[10],anti-tumour effect and side effects of grade 1 or 2
CC[C@@]1(O)C(=O)OCc2c1cc1n(c2=O)Cc2cc3c(CN(C)C)c(O)ccc3nc2-1 [Topotecan],synergy with BMN-673,[5]; [11],did not show consistent synergist action
C[C@]1(c2nc3c(C(N)=O)cccc3[nH]2)CCCN1 [veliparib],PARP1 trapping,[7],relatively poor PARP1 trapping ability

# From US20260345485A1, “INTRATHECAL NANOPARTICLE DELIVERY FOR TREATMENT OF LEPTOMENINGEAL TUMORS WITH CORE-SHELL PARTICLES MADE OF HYPERBRANCHED POLYGLYCEROL AND POLYLACTIC ACID” (priority 2022, published 2026)
